# Literature values as cited in PubChem BioAssay AID1259409 (Chemical Carcinogenesis Research Information System (CCRIS), 2018).
# Tested on: rodent chemically induced tumor inhibition, incidence and multiplicity
# Experiment: CCRIS tumor inhibitor studies
smiles,measurement,setting,value
CN(C)C(=O)Oc1cccc([N+](C)(C)C)c1,"tumour outcome (control, treated, inhibition, significance)","Carcinogen: AZOXYMETHANE, 25843-45-2, Dose [Inhibitor]: 0.1 MG/KG BW 1/2D IN DEPOT FORM BEGINNING 3 WK PRIOR TO FIRST CARCINOGEN DOSE (STUDY DURATION: 40 WK), Route [Inhibitor]: SUBCUTANEOUS, Species: RAT, Strain/Sex: WISTAR/MALE, Target Tissue: Type of Lesion: COLON: TUMOR, Dose [Carcinogen]: 7.4 MG/KG BW IN 0.9% SALINE SOLUTION 1/WK FOR 10 WK, Promoter: NONE USED","18/20 (90%), 9/19 (47%), 47%, p<0.02"
same,"tumour outcome (control, treated, inhibition, significance)","Carcinogen: N-METHYL-N'-NITRO-N-NITROSOGUANIDINE, 70-25-7, Dose [Inhibitor]: 0, 0.075 MG/KG 1/2 D BEGINNING POST CARCINOGEN TREATMENT (STUDY DURATION: 52 WK), Route [Inhibitor]: SUBCUTANEOUS, Species: RAT, Strain/Sex: WISTAR/MALE, Target Tissue: Type of Lesion: STOMACH: ADENOCARCINOMA, Dose [Carcinogen]: 75 UG/ML IN DRINKING WATER FOR 25 WK, Promoter: NONE USED","16/20 (80%), 7/18 (39%), 51%, p<0.05"
same,"tumour outcome (control, treated, inhibition, significance)","Carcinogen: N-METHYL-N'-NITRO-N-NITROSOGUANIDINE, 70-25-7, Dose [Inhibitor]: 0, 0.1 MG/KG IN OLIVE OIL SUSPENSION 1/D BEGINNING 1 WK POST LAST CARCINOGEN DOSE AND CONTINUING FOR DURATION OF STUDY (, Species: RAT, Strain/Sex: WISTAR/MALE, Target Tissue: Type of Lesion: GLANDULAR STOMACH: ADENOCARCINOMA, Dose [Carcinogen]: 50 UG/ML IN DRINKING WATER FOR 25 WK, Promoter: NONE USED","15/18 (83%), 7/19 (37%), 55%, p<0.02"
O=C(/C=C/c1ccc(O)c(O)c1)O[C@@H]1C[C@](O)(C(=O)O)C[C@@H](O)[C@H]1O,"tumour outcome (control, treated, inhibition, significance)","Carcinogen: 4-NITROQUINOLINE-1-OXIDE, 56-57-5, Dose [Inhibitor]: 0, 250 PPM IN DIET FOR 7 WK BEGINNING 1 WK PRIOR TO START OF CARCINOGEN TREATMENT (STUDY DURATION: 32 WK), Route [Inhibitor]: ORAL, Species: RAT, Strain/Sex: F344/MALE, Target Tissue: Type of Lesion: TONGUE: PAPILLOMA, Dose [Carcinogen]: 20 PPM IN DRINKING WATER FOR 5 WK, Promoter: NONE USED","1/15 (7%), 1/15 (7%), 0%, not significant"
same,"tumour outcome (control, treated, inhibition, significance)","Carcinogen: 7,12-DIMETHYLBENZ[A]ANTHRACENE, 57-97-6, Dose [Inhibitor]: 10 UMOL IN 200 µL ACETONE/DMSO (90:10) 2/WK FOR 19 WK BEGINNING 1 WK POST CARCINOGEN DOSE (STUDY DURATION: 20 WK), Route [Inhibitor]: DERMAL, Species: MOUSE, Strain/Sex: CD-1/FEMALE, Target Tissue: Type of Lesion: SKIN: PAPILLOMA, Dose [Carcinogen]: 200 NMOL IN 200 µL ACETONE ONCE, Promoter: 12-O-TETRADECANOYLPHORBOL-13-ACETATE, 16561-29-8","68%, 47%, 31%, not calculated"
same,"tumour outcome (control, treated, inhibition, significance)","Carcinogen: 7,12-DIMETHYLBENZ[A]ANTHRACENE, 57-97-6, Dose [Inhibitor]: 20 UMOL IN 200 µL ACETONE/DMSO (90:10) 2/WK FOR 19 WK BEGINNING 1 WK POST CARCINOGEN DOSE (STUDY DURATION: 20 WK), Route [Inhibitor]: DERMAL, Species: MOUSE, Strain/Sex: CD-1/FEMALE, Target Tissue: Type of Lesion: SKIN: PAPILLOMA, Dose [Carcinogen]: 200 NMOL IN 200 µL ACETONE ONCE, Promoter: 12-O-TETRADECANOYLPHORBOL-13-ACETATE, 16561-29-8","68%, 27%, 60%, not calculated"
same,"tumour outcome (control, treated, inhibition, significance)","Carcinogen: N-METHYL-N-NITROSOUREA [684-93-5], Dose [Inhibitor]: 250 PPM IN DIET FOR 22 WK BEGINNING 1 WK POST LAST CARCINOGEN DOSE (STUDY DURATION: 35 WK), Route [Inhibitor]: ORAL, Species: RAT, Strain/Sex: F344/MALE, Target Tissue: Type of Lesion: GLANDULAR STOMACH: ADENOCARCINOMA, Dose [Carcinogen]: 400 PPM IN DRINKING WATER FOR 12 WK (STUDY DURATION: 35 WK), Promoter: NONE","12/20 (60.0%), 4/17 (23.5%), 61%, p<0.03"
same,"tumour outcome (control, treated, inhibition, significance)","Carcinogen: N-METHYL-N-NITROSOUREA [684-93-5], Dose [Inhibitor]: 500 PPM IN DIET FOR 22 WK BEGINNING 1 WK POST LAST CARCINOGEN DOSE (STUDY DURATION: 35 WK), Route [Inhibitor]: ORAL, Species: RAT, Strain/Sex: F344/MALE, Target Tissue: Type of Lesion: GLANDULAR STOMACH: ADENOCARCINOMA, Dose [Carcinogen]: 400 PPM IN DRINKING WATER FOR 12 WK (STUDY DURATION: 35 WK), Promoter: NONE","12/20 (60.0%), 7/21 (33.3%), 45%, not significant"
same,"tumour outcome (control, treated, inhibition, significance)","Carcinogen: N-NITROQUINOLINE-1-OXIDE, 56-57-5, Dose [Inhibitor]: 0, 250 PPM IN DIET FOR 7 WK BEGINNING 1 WK PRIOR TO START OF CARCINOGEN TREATMENT (STUDY DURATION: 32 WK), Route [Inhibitor]: ORAL, Species: RAT, Strain/Sex: F344\MALE, Target Tissue: Type of Lesion: TONGUE: CARCINOMA, Dose [Carcinogen]: 20 PPM IN DRINKING WATER FOR 5 WK, Promoter: NONE USED","9/15 (60%), 1/15 (7%), 88%, p=0.0025"
C[C@]12CC[C@@H]3c4ccc(OC(=O)c5ccccc5)cc4CC[C@H]3[C@@H]1CC[C@@H]2O,"tumour outcome (control, treated, inhibition, significance)","Carcinogen: 1,2-DIMETHYLHYDRAZINE DIHYDROCHLORIDE, 306-37-6, Dose [Inhibitor]: 0, 15 UG/KG IN PEANUT OIL ON DAYS 1 AND 3 OF STUDY THEN 1/WK FOR 30 WK (STUDY DURATION: 31 WK), Route [Inhibitor]: SUBCUTANEOUS, Species: RAT, Strain/Sex: SPRAGUE-DAWLEY/MALE, Target Tissue: Type of Lesion: COLON: ADENOCARCINOMA, Dose [Carcinogen]: 9 MG/KG 1/WK FOR 7 WK THEN 19.4 MG/KG 1/WK FOR 13 WK, Promoter: NONE USED","14/14 (100%), 14/14 (100%), 0%, not significant"
same,"tumour outcome (control, treated, inhibition, significance)","Carcinogen: 1,2-DIMETHYLHYDRAZINE DIHYDROCHLORIDE, 306-37-6, Dose [Inhibitor]: 0, 15 UG/KG IN PEANUT OIL ON DAYS 1 AND 3 OF STUDY THEN 1/WK FOR 30 WK (STUDY DURATION: 31 WK), Route [Inhibitor]: SUBCUTANEOUS, Species: RAT, Strain/Sex: SPRAGUE-DAWLEY/MALE, Target Tissue: Type of Lesion: SMALL INTESTINE: ADENOCARCINOMA, Dose [Carcinogen]: 9 MG/KG 1/WK FOR 7 WK THEN 19.4 MG/KG 1/WK FOR 13 WK, Promoter: NONE USED","13/14 (93%), 11/14 (79%), 15%, not significant"
C[C@]12CCC(=O)C(O)=C1CC[C@@H]1[C@@H]2CC[C@]2(C)C(=O)CC[C@@H]12,"tumour outcome (control, treated, inhibition, significance)","Carcinogen: METHYLNITROSOUREA, 684-93-5, Dose [Inhibitor]: 0, 6 MG/D 7 D/WK FOR DURATION OF STUDY BEGINNING 1 WK PRIOR TO CARCINOGEN DOSE (STUDY DURATION: 107 D), Route [Inhibitor]: GAVAGE, Species: RAT, Strain/Sex: SPRAGUE-DAWLEY/FEMALE, Target Tissue: Type of Lesion: MAMMARY GLAND: TUMOR, Dose [Carcinogen]: 50 MG/KG BW ONCE, Promoter: NONE USED","100%, 95%, 5%, not significant"
same,"tumour outcome (control, treated, inhibition, significance)","Carcinogen: METHYLNITROSOUREA, 684-93-5, Dose [Inhibitor]: 0, 15 MG/D 7 D/WK FOR DURATION OF STUDY BEGINNING 1 WK PRIOR TO CARCINOGEN DOSE (STUDY DURATION: 107 D), Route [Inhibitor]: GAVAGE, Species: RAT, Strain/Sex: SPRAGUE-DAWLEY/FEMALE, Target Tissue: Type of Lesion: MAMMARY GLAND: TUMOR, Dose [Carcinogen]: 50 MG/KG BW ONCE, Promoter: NONE USED","100%, 100%, 0%, not significant"
O=c1[nH]c(=O)c2[nH]cnc2[nH]1,"tumour outcome (control, treated, inhibition, significance)","Carcinogen: URETHANE, 51-79-6, Dose [Inhibitor]: 0.05 UMOL/G BW GIVEN AT 6 HR INTERVALS FOR 36 HR AFTER CARCINOGEN TREATMENT (STUDY DURATION: 5 MO), Route [Inhibitor]: INTRAPERITONEAL, Species: MOUSE, Strain/Sex: ICR/FEMALE, Target Tissue: Type of Lesion: LUNG: PAPILLARY ADENOMA, Dose [Carcinogen]: 0.1 MG/G BW ONCE, Promoter: NONE USED","31/59 (53%), 26/40 (65%), -23%, not significant"
